For the assay, the target named is T1, wild-type (WT) P450 BM3 heme domain (Priestia megaterium, UniProt P14779).
T1 sequence (P14779 1-464 limits assumed): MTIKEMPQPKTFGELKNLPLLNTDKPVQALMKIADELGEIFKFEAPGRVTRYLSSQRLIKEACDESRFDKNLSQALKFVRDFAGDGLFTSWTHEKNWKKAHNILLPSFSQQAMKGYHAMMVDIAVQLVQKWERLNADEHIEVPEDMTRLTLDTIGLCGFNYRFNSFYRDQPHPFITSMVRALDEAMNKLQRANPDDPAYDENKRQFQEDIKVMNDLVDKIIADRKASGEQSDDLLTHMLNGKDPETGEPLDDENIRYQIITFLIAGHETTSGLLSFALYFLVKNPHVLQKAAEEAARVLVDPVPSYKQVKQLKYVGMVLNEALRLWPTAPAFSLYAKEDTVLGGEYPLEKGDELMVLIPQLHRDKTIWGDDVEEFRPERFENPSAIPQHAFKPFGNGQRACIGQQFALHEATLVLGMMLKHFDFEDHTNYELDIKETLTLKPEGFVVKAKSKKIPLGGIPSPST
The experiment in a line: optical titration, type-I difference spectra. The assay is classed as binding.

Each structure is given as a SMILES string.

The Kd is the free concentration of one partner at which half of the binding sites on the other are occupied at equilibrium, for simple one-to-one binding. The low end stands for higher affinity, the high end for lower affinity. `CCCCCCCCCCCC(=O)O` [LA, lauric acid] yielded a dissociation constant (Kd) of 280 ± 25 µM.

The values above are taken from publication PMC3486690 (Journal of inorganic biochemistry, 2012).
